The values that follow are results of earlier work, collected in US20080160503A1, “RAPID ANALYSIS OF ORAL BIOAVAILABILITY” (priority 2006, published 2008).

For the data set the following is noted: background statement; for first-pass metabolism: oral administration, gut wall and liver; for bioavailability through the oral route: no data shown.

`CC(C)NCC(O)c1ccc(O)c(O)c1` (centres unmarked) [isoproterenol]: the first-pass metabolism result is recorded as “extensive” and the “bioavailability through the oral route” value is reported as “virtually zero”.
As for `NC[C@H](O)c1ccc(O)c(O)c1` [norepinephrine], the “bioavailability through the oral route” value is “virtually zero”.
With `C[C@]12CC[C@H]3[C@@H](CCC4=CC(=O)CC[C@@]43C)[C@@H]1CC[C@@H]2O` [testosterone], the first-pass metabolism result is recorded as “extensive” and the “bioavailability through the oral route” value is “virtually zero”.
